Source: PubChem BioAssay AID1963975 (Molecular Pharmacology Branch, DTP, NCI, 2024)
One block for each compound: values may come before it.

System: 624824-186-R-J2-PDC multicell spheroids, viability
Assay: Anticancer human tumor 624824-186-R-J2-PDC patient-derived colon adenocarcinoma cell line growth inhibition [PI3K]
Settings: for IC50: curve of first compound; for viability, T/C: stronger effect = lower value
Outline: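 Tumor cells were combined with HUVEC and MSCs into spheroids, then dosed with PI3K-inhibitor combinations over half-log ranges capped near clinical Cmax or 10 microM.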

[1] = second compound 0.0316 µM, first compound 0.0316 µM
[2] = second compound 0.0316 µM, first compound 0.1 µM
[3] = second compound 0.0316 µM, first compound 0.316 µM
[4] = second compound 0.0316 µM, first compound 1 µM
[5] = second compound 0.0316 µM, first compound 3.16 µM
[6] = second compound 0.0316 µM, first compound 10 µM
[7] = second compound 0.1 µM, first compound 0.0316 µM
[8] = second compound 0.1 µM, first compound 0.1 µM
[9] = second compound 0.1 µM, first compound 0.316 µM
[10] = second compound 0.1 µM, first compound 1 µM
[11] = second compound 0.1 µM, first compound 3.16 µM
[12] = second compound 0.1 µM, first compound 10 µM
[13] = second compound 0.316 µM, first compound 0.0316 µM
[14] = second compound 0.316 µM, first compound 0.1 µM
[15] = second compound 0.316 µM, first compound 0.316 µM
[16] = second compound 0.316 µM, first compound 1 µM
[17] = second compound 0.316 µM, first compound 3.16 µM
[18] = second compound 0.316 µM, first compound 10 µM
[19] = second compound 1 µM, first compound 0.0316 µM
[20] = second compound 1 µM, first compound 0.1 µM
[21] = second compound 1 µM, first compound 0.316 µM
[22] = second compound 1 µM, first compound 1 µM
[23] = second compound 1 µM, first compound 3.16 µM
[24] = second compound 1 µM, first compound 10 µM
[25] = second compound 3.16 µM, first compound 0.0316 µM
[26] = second compound 3.16 µM, first compound 0.1 µM
[27] = second compound 3.16 µM, first compound 0.316 µM
[28] = second compound 3.16 µM, first compound 1 µM
[29] = second compound 3.16 µM, first compound 3.16 µM
[30] = second compound 3.16 µM, first compound 10 µM
[31] = second compound 10 µM, first compound 0.0316 µM
[32] = second compound 10 µM, first compound 0.1 µM
[33] = second compound 10 µM, first compound 0.316 µM
[34] = second compound 10 µM, first compound 1 µM
[35] = second compound 10 µM, first compound 3.16 µM
[36] = second compound 10 µM, first compound 10 µM
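Note: spheroids exposed to agents for 7 days before viability read.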
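Throughout, for viability, T/C: 100% = DMSO vehicle treated spheroids.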

Structure (SMILES): Cn1ncc(Cl)c1-c1cc(C(=O)NC(CN)Cc2cccc(F)c2)sc1Cl (stereo not given) + CC(Nc1ncnc2nc[nH]c12)c1cc2cccc(Cl)c2c(=O)n1-c1ccccc1
IC50 (second compound 0.0316 µM): > 10 µM
IC50 (second compound 0.1 µM): 9.49 µM
IC50 (second compound 0.316 µM): > 10 µM
IC50 (second compound 1 µM): 7.07 µM
IC50 (second compound 3.16 µM): > 10 µM
IC50 (second compound 10 µM): 9.26 µM
viability, T/C [1]: 73.9%
viability, T/C [2]: 85.7%
viability, T/C [3]: 71.5%
viability, T/C [4]: 68.3%
viability, T/C [5]: 57.2%
viability, T/C [6]: 55.1%
viability, T/C [7]: 80.1%
viability, T/C [8]: 67.8%
viability, T/C [9]: 80.7%
viability, T/C [10]: 73%
viability, T/C [11]: 67.6%
viability, T/C [12]: 49.2%
viability, T/C [13]: 95.3%
viability, T/C [14]: 86.4%
viability, T/C [15]: 67%
viability, T/C [16]: 69%
viability, T/C [17]: 63.6%
viability, T/C [18]: 47.8%
viability, T/C [19]: 82.1%
viability, T/C [20]: 95.8%
viability, T/C [21]: 71%
viability, T/C [22]: 78.2%
viability, T/C [23]: 62.3%
viability, T/C [24]: 44.2%
viability, T/C [25]: 79.9%
viability, T/C [26]: 91.6%
viability, T/C [27]: 78.8%
viability, T/C [28]: 70.2%
viability, T/C [29]: 69.8%
viability, T/C [30]: 50.6%
viability, T/C [31]: 104%
viability, T/C [32]: 73.2%
viability, T/C [33]: 89.7%
viability, T/C [34]: 68.7%
viability, T/C [35]: 64.1%
viability, T/C [36]: 47.1%

Structure (SMILES): Cn1nccc1Nc1nccc(-c2ccn(C(CO)c3ccc(Cl)c(F)c3)c(=O)c2)n1 (stereo not given) + CC(Nc1ncnc2nc[nH]c12)c1cc2cccc(Cl)c2c(=O)n1-c1ccccc1
IC50 (second compound 0.0316 µM): > 10 µM
IC50 (second compound 0.1 µM): > 10 µM
IC50 (second compound 0.316 µM): > 10 µM
IC50 (second compound 1 µM): > 10 µM
IC50 (second compound 3.16 µM): > 10 µM
IC50 (second compound 10 µM): > 10 µM
viability, T/C [1]: 73.9%
viability, T/C [2]: 61.6%
viability, T/C [3]: 72.4%
viability, T/C [4]: 76.7%
viability, T/C [5]: 87.6%
viability, T/C [6]: 85.4%
viability, T/C [7]: 110%
viability, T/C [8]: 83.8%
viability, T/C [9]: 78%
viability, T/C [10]: 74.7%
viability, T/C [11]: 82.4%
viability, T/C [12]: 89.6%
viability, T/C [13]: 90.7%
viability, T/C [14]: 94%
viability, T/C [15]: 59.5%
viability, T/C [16]: 66.1%
viability, T/C [17]: 82.1%
viability, T/C [18]: 83.7%
viability, T/C [19]: 96%
viability, T/C [20]: 87.4%
viability, T/C [21]: 67.8%
viability, T/C [22]: 74.2%
viability, T/C [23]: 80.3%
viability, T/C [24]: 79.7%
viability, T/C [25]: 106%
viability, T/C [26]: 70.2%
viability, T/C [27]: 61.9%
viability, T/C [28]: 77.7%
viability, T/C [29]: 75.5%
viability, T/C [30]: 63.7%
viability, T/C [31]: 82.1%
viability, T/C [32]: 90.2%
viability, T/C [33]: 85.9%
viability, T/C [34]: 70.8%
viability, T/C [35]: 67.8%
viability, T/C [36]: 61%

The next lines start with results.

IC50 (second compound 0.0316 µM): > 10 µM
IC50 (second compound 0.1 µM): > 10 µM
IC50 (second compound 0.316 µM): > 10 µM
IC50 (second compound 1 µM): > 10 µM
IC50 (second compound 3.16 µM): > 10 µM
IC50 (second compound 10 µM): > 10 µM
Structure (SMILES): C=CC(=O)N1CCN(c2nc(=O)n(-c3c(C)ccnc3C(C)C)c3nc(-c4c(O)cccc4F)c(F)cc23)C(C)C1 (stereo not given) + CC(Nc1ncnc2nc[nH]c12)c1cc2cccc(Cl)c2c(=O)n1-c1ccccc1
viability, T/C [1]: 77.6%
viability, T/C [2]: 82.8%
viability, T/C [3]: 100%
viability, T/C [4]: 85.2%
viability, T/C [5]: 75.2%
viability, T/C [6]: 77.9%
viability, T/C [7]: 95.2%
viability, T/C [8]: 77.9%
viability, T/C [9]: 82%
viability, T/C [10]: 93.6%
viability, T/C [11]: 78.1%
viability, T/C [12]: 90.2%
viability, T/C [13]: 104%
viability, T/C [14]: 94.2%
viability, T/C [15]: 79.4%
viability, T/C [16]: 88.7%
viability, T/C [17]: 83.8%
viability, T/C [18]: 72.8%
viability, T/C [19]: 106%
viability, T/C [20]: 80.7%
viability, T/C [21]: 84.8%
viability, T/C [22]: 84.4%
viability, T/C [23]: 77.3%
viability, T/C [24]: 70.6%
viability, T/C [25]: 97.6%
viability, T/C [26]: 96.6%
viability, T/C [27]: 77.5%
viability, T/C [28]: 90.4%
viability, T/C [29]: 85.5%
viability, T/C [30]: 81%
viability, T/C [31]: 116%
viability, T/C [32]: 98.7%
viability, T/C [33]: 109%
viability, T/C [34]: 99.2%
viability, T/C [35]: 92.3%
viability, T/C [36]: 83%

IC50 (second compound 0.0316 µM): > 10 µM
IC50 (second compound 0.1 µM): > 10 µM
IC50 (second compound 0.316 µM): > 10 µM
IC50 (second compound 1 µM): > 10 µM
IC50 (second compound 3.16 µM): > 10 µM
IC50 (second compound 10 µM): > 10 µM
Structure (SMILES): CC(Cn1ccc(-c2ccc(C#N)c(Cl)c2)n1)NC(=O)c1cc(C(C)O)[nH]n1 (stereo not given) + CC(Nc1ncnc2nc[nH]c12)c1cc2cccc(Cl)c2c(=O)n1-c1ccccc1
viability, T/C [1]: 98.2%
viability, T/C [2]: 90.6%
viability, T/C [3]: 96.1%
viability, T/C [4]: 106%
viability, T/C [5]: 99.2%
viability, T/C [6]: 113%
viability, T/C [7]: 92.1%
viability, T/C [8]: 93.6%
viability, T/C [9]: 114%
viability, T/C [10]: 108%
viability, T/C [11]: 98.5%
viability, T/C [12]: 115%
viability, T/C [13]: 111%
viability, T/C [14]: 102%
viability, T/C [15]: 84.7%
viability, T/C [16]: 97.5%
viability, T/C [17]: 107%
viability, T/C [18]: 100%
viability, T/C [19]: 105%
viability, T/C [20]: 106%
viability, T/C [21]: 95.2%
viability, T/C [22]: 94.5%
viability, T/C [23]: 80.5%
viability, T/C [24]: 92.4%
viability, T/C [25]: 112%
viability, T/C [26]: 102%
viability, T/C [27]: 85.5%
viability, T/C [28]: 102%
viability, T/C [29]: 110%
viability, T/C [30]: 115%
viability, T/C [31]: 103%
viability, T/C [32]: 106%
viability, T/C [33]: 110%
viability, T/C [34]: 115%
viability, T/C [35]: 106%
viability, T/C [36]: 107%

IC50 (second compound 0.0316 µM): > 1 µM
IC50 (second compound 0.1 µM): > 1 µM
IC50 (second compound 0.316 µM): > 1 µM
IC50 (second compound 1 µM): > 1 µM
IC50 (second compound 3.16 µM): > 1 µM
IC50 (second compound 10 µM): > 1 µM
Structure (SMILES): CCN1CCN(Cc2ccc(Nc3ncc(F)c(-c4cc(F)c5nc(C)n(C(C)C)c5c4)n3)nc2)CC1 + CC(Nc1ncnc2nc[nH]c12)c1cc2cccc(Cl)c2c(=O)n1-c1ccccc1
viability, T/C (second compound 0.0316 µM, first compound 0.00316 µM): 91.4%
viability, T/C (second compound 0.0316 µM, first compound 0.01 µM): 125%
viability, T/C [1]: 77.5%
viability, T/C [2]: 83.9%
viability, T/C [3]: 85.3%
viability, T/C [4]: 101%
viability, T/C (second compound 0.1 µM, first compound 0.00316 µM): 121%
viability, T/C (second compound 0.1 µM, first compound 0.01 µM): 100%
viability, T/C [7]: 100%
viability, T/C [8]: 102%
viability, T/C [9]: 88.1%
viability, T/C [10]: 115%
viability, T/C (second compound 0.316 µM, first compound 0.00316 µM): 99.8%
viability, T/C (second compound 0.316 µM, first compound 0.01 µM): 96.2%
viability, T/C [13]: 95.5%
viability, T/C [14]: 66.9%
viability, T/C [15]: 92%
viability, T/C [16]: 112%
viability, T/C (second compound 1 µM, first compound 0.00316 µM): 104%
viability, T/C (second compound 1 µM, first compound 0.01 µM): 72.2%
viability, T/C [19]: 85.8%
viability, T/C [20]: 81.4%
viability, T/C [21]: 93.7%
viability, T/C [22]: 102%
viability, T/C (second compound 3.16 µM, first compound 0.00316 µM): 91%
viability, T/C (second compound 3.16 µM, first compound 0.01 µM): 86.5%
viability, T/C [25]: 77.3%
viability, T/C [26]: 95.8%
viability, T/C [27]: 111%
viability, T/C [28]: 112%
viability, T/C (second compound 10 µM, first compound 0.00316 µM): 120%
viability, T/C (second compound 10 µM, first compound 0.01 µM): 100%
viability, T/C [31]: 114%
viability, T/C [32]: 91.6%
viability, T/C [33]: 91.2%
viability, T/C [34]: 101%
